How the values were obtained:
Conditions in all cases: 72 h
Caco-2 [1] = experiment: cell viability relative to DMSO; higher = less toxic
Calu-3 [2] = experiment: as above
HepG2 [3] = experiment: as above
U2OS [4] = experiment: as above
Vero E6 [5] = experiment: as above
Caco-2 [6] = experiment: relative viability EC50 (midpoint between 100% and the lowest measured viability); higher = less toxic
Calu-3 [7] = experiment: as above
HepG2 [8] = experiment: as above
U2OS [9] = experiment: as above
Vero E6 [10] = experiment: as above
Caco-2 [11] = experiment: drug sensitivity score (DSS) for viability; higher = more toxic; extreme values may be limits of the assay
Calu-3 [12] = experiment: as above
HepG2 [13] = experiment: as above
U2OS [14] = experiment: as above
Vero E6 [15] = experiment: as above

| SMILES | cell viability (Caco-2 [1]; 1 nM) [%] | cell viability (Caco-2 [1]; 10 nM) [%] | cell viability (Caco-2 [1]; 100 nM) [%] | cell viability (Caco-2 [1]; 1000 nM) [%] | cell viability (Caco-2 [1]; 10000 nM) [%] | cell viability (Calu-3 [2]; 1 nM) [%] | cell viability (Calu-3 [2]; 10 nM) [%] | cell viability (Calu-3 [2]; 100 nM) [%] | cell viability (Calu-3 [2]; 1000 nM) [%] | cell viability (Calu-3 [2]; 10000 nM) [%] | cell viability (HepG2 [3]; 1 nM) [%] | cell viability (HepG2 [3]; 10 nM) [%] | cell viability (HepG2 [3]; 100 nM) [%] | cell viability (HepG2 [3]; 1000 nM) [%] | cell viability (HepG2 [3]; 10000 nM) [%] | cell viability (U2OS [4]; 1 nM) [%] | cell viability (U2OS [4]; 10 nM) [%] | cell viability (U2OS [4]; 100 nM) [%] | cell viability (U2OS [4]; 1000 nM) [%] | cell viability (U2OS [4]; 10000 nM) [%] | cell viability (Vero E6 [5]; 1 nM) [%] | cell viability (Vero E6 [5]; 10 nM) [%] | cell viability (Vero E6 [5]; 100 nM) [%] | cell viability (Vero E6 [5]; 1000 nM) [%] | cell viability (Vero E6 [5]; 10000 nM) [%] | relative viability EC50 (Caco-2 [6]) [µM] | relative viability EC50 (Calu-3 [7]) [µM] | relative viability EC50 (HepG2 [8]) [µM] | relative viability EC50 (U2OS [9]) [µM] | relative viability EC50 (Vero E6 [10]) [µM] | drug sensitivity score (Caco-2 [11]) | drug sensitivity score (Calu-3 [12]) | drug sensitivity score (HepG2 [13]) | drug sensitivity score (U2OS [14]) | drug sensitivity score (Vero E6 [15]) |
| --- | --- | --- | --- | --- | --- | --- | --- | --- | --- | --- | --- | --- | --- | --- | --- | --- | --- | --- | --- | --- | --- | --- | --- | --- | --- | --- | --- | --- | --- | --- | --- | --- | --- | --- | --- |
| CCCCCCCNS(=O)(=O)c1cccc2c(Cl)cccc12 [SC-10] | 112 | 99.9 | 84.6 | 123 | 90.7 | 99.7 | 106 | 93.8 | 105 | 105 | 98.3 | 94.8 | 108 | 97.5 | 96.3 | 97.7 | 98.1 | 93.5 | 103 | 96.2 | 117 | 95.8 | 102 | 100 | 95.3 | > 10 | > 10 | > 10 | > 10 | > 10 | 0 | 0 | 0 | 0 | 0 |
| CN(Cc1ccccc1)C(=O)[C@H](Cc1ccc2ccccc2c1)NC(=O)[C@@H]1CCCN1C(=O)Nc1ccccc1[N+](=O)[O-] [SDZ-NKT-343] | 96.3 | 97.3 | 96.1 | 89 | 75.1 | 95 | 93.7 | 98.9 | 97.3 | 90.7 | 102 | 93.9 | 103 | 93.6 | 92.2 | 105 | 103 | 101 | 106 | 87.3 | 102 | 98.7 | 106 | 97.7 | 99.2 | > 10 | > 10 | > 10 | > 10 | > 10 | 1.7 | 0 | 0 | 0 | 0 |
| COc1cn(-c2ccc(-n3cccn3)cc2F)nc(-c2ccnn2-c2ccccc2)c1=O [TAK-063] | 88.1 | 95.7 | 91.1 | 97.4 | 105 | 92.1 | 95.4 | 98.8 | 102 | 109 | 99.7 | 95.5 | 102 | 105 | 106 | 97.3 | 99.6 | 97.1 | 101 | 102 | 91.7 | 97.3 | 103 | 90 | 104 | > 10 | > 10 | > 10 | > 10 | > 10 | 0 | 0 | 0 | 0 | 0 |
| COc1cc2c(NC3CCN(C)CC3)nc(N3CCCN(C)CC3)nc2cc1OCCCN(C)C [UNC0224] | 99.3 | 101 | 89.9 | 95.8 | 103 | 143 | 103 | 94.2 | 97.9 | 98.9 | 90.3 | 97.4 | 98.8 | 101 | 95.9 | 103 | 96 | 104 | 101 | 101 | 96.7 | 102 | 101 | 102 | 98.1 | > 10 | > 10 | > 10 | > 10 | > 10 | 0 | 0 | 0 | 0 | 0 |
| Nc1c(-c2cccc(C(F)(F)F)c2)nsc1C(=O)O [amflutizole] | 96.2 | 96.6 | 99.1 | 99.1 | 107 | 104 | 94.1 | 104 | 97 | 104 | 97.1 | 100 | 92.1 | 108 | 96.9 | 101 | 99.5 | 103 | 96.9 | 98.1 | 96.8 | 97.8 | 97.7 | 99.1 | 113 | > 10 | > 10 | > 10 | > 10 | > 10 | 0 | 0 | 0 | 0 | 0 |
| O=C(O)CCCCCCNC1c2ccccc2CCc2ccccc21 [amineptine] | 90.6 | 99.7 | 99 | 103 | 110 | 101 | 95.3 | 111 | 96.2 | 102 | 109 | 102 | 93 | 98.8 | 105 | 98.8 | 101 | 97.9 | 99 | 98.9 | 104 | 107 | 99 | 100 | 97.2 | > 10 | > 10 | > 10 | > 10 | > 10 | 0 | 0 | 0 | 0 | 0 |
